Results reported in publication PMC3356581 (Bioorganic & medicinal chemistry, 2012).

Key:
5-HT1A receptor [1] = biological target: T1, 5-HT1A receptor (Homo sapiens, UniProt P08908); conditions: read-out: Binding data, Ki ± SEM, previously reported; cited from earlier work
T1 sequence (P08908 1-422): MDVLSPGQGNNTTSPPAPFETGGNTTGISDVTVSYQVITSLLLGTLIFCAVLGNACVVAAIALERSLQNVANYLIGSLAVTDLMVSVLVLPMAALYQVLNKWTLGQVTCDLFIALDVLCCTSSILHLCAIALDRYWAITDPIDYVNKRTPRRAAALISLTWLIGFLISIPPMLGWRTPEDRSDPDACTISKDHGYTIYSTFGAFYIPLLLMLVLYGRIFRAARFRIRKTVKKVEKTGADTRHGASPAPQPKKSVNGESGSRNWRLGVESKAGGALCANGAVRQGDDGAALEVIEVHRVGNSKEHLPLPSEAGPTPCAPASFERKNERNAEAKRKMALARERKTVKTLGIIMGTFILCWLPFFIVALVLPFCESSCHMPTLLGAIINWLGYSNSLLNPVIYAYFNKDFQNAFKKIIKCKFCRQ

5-HT2C receptor [2] = biological target: T2, 5-HT2C receptor (Homo sapiens, UniProt P28335); conditions: read-out: Binding data, Ki ± SEM, previously reported; cited from earlier work
T2 sequence (P28335 33-458): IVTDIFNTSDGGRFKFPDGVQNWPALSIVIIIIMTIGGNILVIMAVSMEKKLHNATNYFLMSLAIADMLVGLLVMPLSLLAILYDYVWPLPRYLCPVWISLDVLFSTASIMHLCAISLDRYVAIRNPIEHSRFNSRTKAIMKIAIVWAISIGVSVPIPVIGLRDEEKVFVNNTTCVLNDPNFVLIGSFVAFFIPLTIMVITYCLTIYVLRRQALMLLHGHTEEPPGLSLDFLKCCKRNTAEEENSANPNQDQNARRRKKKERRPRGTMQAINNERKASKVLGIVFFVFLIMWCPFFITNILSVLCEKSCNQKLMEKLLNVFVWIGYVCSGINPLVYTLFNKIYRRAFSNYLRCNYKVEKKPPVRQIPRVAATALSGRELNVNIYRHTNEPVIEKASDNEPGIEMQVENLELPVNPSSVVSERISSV

D4 receptor [3] = biological target: T3, D4 receptor (Homo sapiens, UniProt P21917); conditions: read-out: Binding data, Ki ± SEM, previously reported; cited from earlier work
T3 sequence (P21917 1-419): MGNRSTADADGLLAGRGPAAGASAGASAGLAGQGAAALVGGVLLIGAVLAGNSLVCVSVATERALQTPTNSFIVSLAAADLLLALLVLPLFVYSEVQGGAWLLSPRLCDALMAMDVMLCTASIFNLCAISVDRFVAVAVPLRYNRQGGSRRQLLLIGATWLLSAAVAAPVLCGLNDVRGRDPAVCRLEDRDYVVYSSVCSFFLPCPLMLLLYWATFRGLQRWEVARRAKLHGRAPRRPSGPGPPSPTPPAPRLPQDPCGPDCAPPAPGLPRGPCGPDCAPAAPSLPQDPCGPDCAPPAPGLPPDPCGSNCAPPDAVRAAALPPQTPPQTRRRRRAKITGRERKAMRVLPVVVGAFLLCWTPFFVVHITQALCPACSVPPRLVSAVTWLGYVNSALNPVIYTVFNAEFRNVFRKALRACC

D2 receptor = D2 receptor (Homo sapiens, UniProt P14416); assay: NIMH-PDSP radioligand binding, D2
Chain of D2 receptor (P14416 whole entry): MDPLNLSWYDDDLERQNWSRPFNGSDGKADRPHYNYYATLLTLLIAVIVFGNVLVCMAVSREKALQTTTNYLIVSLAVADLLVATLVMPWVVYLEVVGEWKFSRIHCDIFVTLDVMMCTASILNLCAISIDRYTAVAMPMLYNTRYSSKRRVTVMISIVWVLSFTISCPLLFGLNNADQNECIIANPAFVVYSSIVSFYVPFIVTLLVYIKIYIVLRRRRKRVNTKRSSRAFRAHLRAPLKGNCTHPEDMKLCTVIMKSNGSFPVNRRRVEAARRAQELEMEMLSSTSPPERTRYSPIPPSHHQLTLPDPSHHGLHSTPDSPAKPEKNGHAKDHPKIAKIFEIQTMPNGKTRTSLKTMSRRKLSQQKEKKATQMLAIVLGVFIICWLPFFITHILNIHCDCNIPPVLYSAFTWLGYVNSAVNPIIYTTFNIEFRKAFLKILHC

catalepsy = conditions: in vivo studies, five times the ED50 dose; cited from earlier work
5-HT1A receptor [4] = biological target: T1, 5-HT1A receptor; assay: NIMH-PDSP radioligand binding, 5-HT1A
5-HT2A receptor = 5-HT2A receptor (Homo sapiens, UniProt P28223); assay: NIMH-PDSP radioligand binding, 5-HT2A
Chain of 5-HT2A receptor (P28223 whole entry): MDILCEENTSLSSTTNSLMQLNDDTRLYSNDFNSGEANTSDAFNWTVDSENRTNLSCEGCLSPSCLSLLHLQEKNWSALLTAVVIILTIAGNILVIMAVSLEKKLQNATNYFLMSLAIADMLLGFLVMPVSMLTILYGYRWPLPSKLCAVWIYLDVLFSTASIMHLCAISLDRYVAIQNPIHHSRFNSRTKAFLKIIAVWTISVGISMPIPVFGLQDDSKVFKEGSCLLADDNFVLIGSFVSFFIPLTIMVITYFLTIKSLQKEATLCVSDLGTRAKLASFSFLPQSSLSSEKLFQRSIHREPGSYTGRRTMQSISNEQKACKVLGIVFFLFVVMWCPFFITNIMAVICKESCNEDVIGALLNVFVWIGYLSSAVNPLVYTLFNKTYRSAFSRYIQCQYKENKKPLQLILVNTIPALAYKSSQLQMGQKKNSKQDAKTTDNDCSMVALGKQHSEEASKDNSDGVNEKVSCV

5-HT2C receptor [5] = biological target: T2, 5-HT2C receptor; assay: NIMH-PDSP radioligand binding, 5-HT2C
D4 receptor [6] = biological target: T3, D4 receptor; assay: NIMH-PDSP radioligand binding, D4
Histamine H1 receptor = Histamine H1 receptor (Homo sapiens, UniProt P35367); assay: NIMH-PDSP radioligand binding, H1
Chain of Histamine H1 receptor (P35367 whole entry, species assumed): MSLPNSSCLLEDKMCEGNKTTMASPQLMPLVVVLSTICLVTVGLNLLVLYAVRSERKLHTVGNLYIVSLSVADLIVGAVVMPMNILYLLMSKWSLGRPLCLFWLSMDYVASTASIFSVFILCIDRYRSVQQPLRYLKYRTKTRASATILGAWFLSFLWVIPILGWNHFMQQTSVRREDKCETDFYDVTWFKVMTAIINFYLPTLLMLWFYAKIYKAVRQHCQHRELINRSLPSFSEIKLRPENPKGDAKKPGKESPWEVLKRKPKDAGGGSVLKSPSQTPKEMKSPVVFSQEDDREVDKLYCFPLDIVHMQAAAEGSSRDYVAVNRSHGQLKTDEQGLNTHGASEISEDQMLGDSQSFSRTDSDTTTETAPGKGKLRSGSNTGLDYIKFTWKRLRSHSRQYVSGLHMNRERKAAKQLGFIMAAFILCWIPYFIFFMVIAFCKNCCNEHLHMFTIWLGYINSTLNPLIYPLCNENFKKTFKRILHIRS

Structure (SMILES)	Binding data; Ki ± SEM, D2 (D2 receptor)	Binding data; Ki ± SEM, 5-HT1A (5-HT1A receptor [4])	Binding data; Ki ± SEM, 5-HT2A (5-HT2A receptor)	Binding data; Ki ± SEM, 5-HT2C (5-HT2C receptor [5])	other results
O=C(CCCN1CCN(c2ccc(Cl)cc2)CC1)c1ccc(F)cc1 [Compound 3]					Ki (5-HT1A receptor [1]): 0.0909 ± 0.021 µM; Ki (5-HT2C receptor [2]): 3.55 ± 0.943 µM; Ki (D4 receptor [3]): 0.0175 ± 0.002 µM
Clc1ccc(N2CCCN(CCCc3nc4ccccc4s3)CC2)cc1 [Compound 14, 2-(3-(4-(4-Chlorophenyl)-1,4-diazepan-1-yl)propyl)benzo [d]thiazole]	MP (Missed primary assay threshold of 50% inhibition)				
O=C(CCCN1CCCN(c2ccc(Cl)cc2)CC1)c1ccc(F)cc1 [Compound 2, 4-(4-(4-chlorophenyl)-1,4-diazepan-1-yl)-1-(4-fluorophenyl)butan-1-one]					catalepsy (catalepsy): without the associated catalepsy even at five times the ED50 dose
O=C(CCCCN1C2CCC1CC(O)(c1ccc(Cl)cc1)C2)c1nc2ccccc2s1 (stereo not shown) [Compound 18, 1-(Benzo[d]thiazol-2-yl)-5-(3-(4-chlorophenyl)-3-hydroxy-8-azabicyclo[3.2.1]octan-8-yl)pentan-1-one]		MP (Missed primary assay threshold of 50% inhibition)	MP (Missed primary assay threshold of 50% inhibition)	MP (Missed primary assay threshold of 50% inhibition)	
O=C(CCCN1CCCN(c2ccc(Cl)cc2)CC1)c1nc2ccccc2s1 [Compound 17, 1-(Benzo[d]thiazol-2-yl)-4-(4-(4-chlorophenyl)-1,4-diazepan-1-yl)butan-1-one]	MP (Missed primary assay threshold of 50% inhibition)	MP (Missed primary assay threshold of 50% inhibition)		MP (Missed primary assay threshold of 50% inhibition)	
Clc1ccc(N2CCCN(Cc3nc4ccccc4s3)CC2)cc1 [Compound 15, 2-((4-(4-Chlorophenyl)-1,4-diazepan-1-yl)methyl)benzo [d]thiazole]		MP (Missed primary assay threshold of 50% inhibition)	MP (Missed primary assay threshold of 50% inhibition)	MP (Missed primary assay threshold of 50% inhibition)	Binding data; Ki ± SEM, D4 (D4 receptor [6]): MP (Missed primary assay threshold of 50% inhibition); Binding data; Ki ± SEM, H1 (Histamine H1 receptor): MP (Missed primary assay threshold of 50% inhibition)
